Peptide text beside a SMILES is read from it.
Legend:
[1] = target: T1, PjMetAP-II (Pyrococcus furiosus, UniProt P56218); test: DTNB inactivation of type-II MetAP, identical experiments; format: biochemical; conditions: even after several hours
[2] = target: T2, C59A EcMetAP (Escherichia coli, UniProt P0AE18, C59A); test: DTNB inactivation of C59A mutant enzyme; format: biochemical, E. coli; conditions: 10 μM DTNB
T2 construct: made in house
Procedure: (§1) Since at least one surface accessible cysteine residue, in addition to Cys59 and Cys70, exists in EcMetAP-I, reaction of DTNB with other residues cannot be ruled out. In order to circumvent this problem, both the C59A and C70A EcMetAP-I mutant enzymes were prepared and purified using the QuikChange Site-directed Mutagenesis Kit (Stratagene) and each mutation was verified by nucleotide sequencing. Both mutant enzymes bind one equivalent of Co(II) or Fe(II) tightly, based on ICP-AES analysis, which is identical to wild-type EcMetAP, and their kinetic parameters are listed below. […] Moreover, the Km values for both Co(II)— and Fe(II)-loaded EcMetAP C59A and C70A double and quadruple, respectively.

[3] = target: HsMetAP type-II enzyme (Homo sapiens, UniProt P50579); test: DTNB effect on catalytic activity of HsMetAP type-II; format: biochemical; conditions: 200 μM DTNB
[4] = target: T3, EcMetAP-I (Escherichia coli, UniProt P0AE18); test: DTNB inactivation of EcMetAP-I, hydrolysis of MP-p-NA; format: biochemical, E. coli; conditions: 200 μM DTNB, Co(II)-loaded EcMetAP-I, strict anaerobic conditions, pH 7.5, MP-p-NA hydrolysis
T3 sequence (P0AE18 1-264): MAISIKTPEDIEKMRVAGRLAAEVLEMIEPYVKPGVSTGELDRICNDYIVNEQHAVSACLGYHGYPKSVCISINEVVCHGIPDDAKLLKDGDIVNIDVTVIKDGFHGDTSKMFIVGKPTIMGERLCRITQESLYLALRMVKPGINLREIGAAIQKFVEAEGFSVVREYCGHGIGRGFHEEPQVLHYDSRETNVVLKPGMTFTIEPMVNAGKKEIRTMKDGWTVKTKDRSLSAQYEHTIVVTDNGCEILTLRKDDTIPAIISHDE
Procedure: In order to determine if Cys59 and Cys70 are involved in substrate recognition and binding, it was examined if the cysteine-specific chemical modification reagent, 5,5′-dithio-bis(2-nitrobenzoic acid) (DTNB) inhibits the hydrolysis of methionylprolyl-p-nitroanilide (MP-p-NA) by EcMetAP. A 200 μM solution of DTNB was prepared in 50 mM HEPES buffer, pH 7.5, […] and added to a […] sample of Co(II)-loaded EcMetAP-I under strict anaerobic conditions.

[5] = target: T4, C70A EcMetAP (Escherichia coli, UniProt P0AE18, C70A); test: DTNB inactivation of C70A mutant enzyme; format: biochemical, E. coli; conditions: compared with wild-type
T4 construct: made in house
Procedure: as §1

[6] = target: T1, PjMetAP-II; test: Reaction of type-II MetAP with Inhibitor 1 and Inhibitor 2, catalytic activity; format: biochemical; conditions: reaction for up to 12 hours
Procedure: (§2) Since only C59 appears to be accessible for covalent modification, two potential inhibitors (Inhibitor 1 and Inhibitor 2, as depicted in FIG. 10) were prepared based on molecular modeling, one of which contains a good leaving group (I^−) and should be susceptible to nucleophilic attack while the second will not undergo nucleophilic addition.

[7] = target: T5, wild-type EcMetAP-I (Escherichia coli, UniProt P0AE18); test: Reaction of wild-type EcMetAP-I with Inhibitor 1 and Inhibitor 2, catalytic activity; format: biochemical, E. coli; conditions: reaction for up to 12 hours
T5 sequence (P0AE18 1-264): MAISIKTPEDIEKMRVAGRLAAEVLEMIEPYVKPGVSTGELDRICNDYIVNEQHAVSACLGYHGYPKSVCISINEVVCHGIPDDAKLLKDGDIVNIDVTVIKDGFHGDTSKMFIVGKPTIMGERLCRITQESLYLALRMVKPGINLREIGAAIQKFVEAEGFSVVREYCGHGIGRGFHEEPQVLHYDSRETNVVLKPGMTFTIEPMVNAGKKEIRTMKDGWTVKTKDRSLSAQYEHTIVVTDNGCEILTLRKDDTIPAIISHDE
Procedure: as §2

[8] = target: T3, EcMetAP-I; test: MALDI-TOF analysis of EcMetAP-I with and without Inhibitor 1; format: binding, E. coli
Procedure: Matrix-Assisted Laser Desorption Ionization-Time of Flight (MALDI-TOF) spectrometric analysis was performed on EcMetAP-I in both the presence and absence of Inhibitor 1.

[9] = target: T4, C70A EcMetAP; test: Kinetic constants towards MGMM, C70A mutant; format: biochemical, E. coli; conditions: 30° C., pH 7.5
Procedure: as §1

[10] = target: T2, C59A EcMetAP; test: Kinetic constants towards MGMM, C59A mutant; format: biochemical, E. coli; conditions: 30° C., pH 7.5
Procedure: as §1

[11] = substrate: CSCC[C@H](NC(=O)[C@H](CCSC)NC(=O)CNC(=O)[C@@H](N)CCSC)C(=O)O; test: Kinetic constants towards MGMM, wild-type enzyme; format: biochemical, E. coli; conditions: 30° C., pH 7.5
Procedure: as §1

In the case of `O=C(O)c1cc(SSc2ccc([N+](=O)[O-])c(C(=O)O)c2)ccc1[N+](=O)[O-]` [DTNB, 5,5′-dithio-bis(2-nitrobenzoic acid)], the “inactivation due to DTNB” value [1] is reported as “no inactivation”, the inactivation rate ([2]; compared with wild-type) is reported as “slower rate” and the “inactivation of the catalytic activity” value ([2]; strict anaerobic conditions) is reported as “complete inactivation”. The “loss in catalytic activity” value [3] was “no loss in catalytic activity”, the “time until EcMetAP was completely inactive after addition of DTNB” value [4] was 50 min and the observed inactivation rate [5] was “identical to wild-type enzyme”.

For `O=P(O)(O)CCCCI` [Inhibitor 1, 4-iodobutylphosphonic acid], the “inhibition of type-II MetAP” value [6] was “not significantly inhibited”, the “effect on catalytic activity of EcMetAP-I” value [7] was “complete and irreversible loss in catalytic activity” and the “shift in mass peak of EcMetAP-I upon reaction (addition)” value ([8]; MALDI-TOF, enzyme alone 29,500±10) was 140 mass units. For the same molecule, the “mode of binding to EcMetAP-I” value ([8]; via C59, concluded from MALDI-TOF) was “covalently bound”.

`O=C(O)CCCCCP(=O)(O)O` [Inhibitor 2, 6-phosphonhexanoic acid] was tested, and the “inhibition of type-II MetAP” value [6] was “not significantly inhibited” and the “effect on catalytic activity of EcMetAP-I” value [7] was “did not significantly alter”.

With `CSCC[C@H](NC(=O)[C@H](CCSC)NC(=O)CNC(=O)[C@@H](N)CCSC)C(=O)O` [MGMM] (H-MGMM-OH) the Km ([9]; Co(II)-loaded) was 10 ± 0.2 mM, the Km ([9]; Fe(II)-loaded) was 11 ± 0.2 mM and the Km ([10]; Co(II)-loaded) was 6.4 ± 0.2 mM. It also gave a Km ([10]; Fe(II)-loaded) of 8 ± 0.2 mM.

B1: wild-type EcMetAP (Escherichia coli K-12) (protein)
chain: MAISIKTPEDIEKMRVAGRLAAEVLEMIEPYVKPGVSTGELDRICNDYIVNEQHAVSACLGYHGYPKSVCISINEVVCHGIPDDAKLLKDGDIVNIDVTVIKDGFHGDTSKMFIVGKPTIMGERLCRITQESLYLALRMVKPGINLREIGAAIQKFVEAEGFSVVREYCGHGIGRGFHEEPQVLHYDSRETNVVLKPGMTFTIEPMVNAGKKEIRTMKDGWTVKTKDRSLSAQYEHTIVVTDNGCEILTLRKDDTIPAIISHDE
For B1, the Km ([11]; other: Co(II)-loaded) was 3.2 ± 0.1 mM, the Vmax ([11]; other: Co(II)-loaded) was 39 µmol/min/mg and the kcat ([11]; other: Co(II)-loaded) was 19.5 s⁻¹. The kcat/Km ([11]; other: Co(II)-loaded) was 6100 M⁻¹ s⁻¹, the Km ([11]; other: Fe(II)-loaded) was 2.0 ± 0.3 mM and the Vmax ([11]; other: Fe(II)-loaded) was 55 µmol/min/mg. It also gave a kcat ([11]; other: Fe(II)-loaded) of 28 s⁻¹ and a kcat/Km ([11]; other: Fe(II)-loaded) of 14000 M⁻¹ s⁻¹.
